B1: T4 gene 32 Protein: T4 gene 32 Protein (protein, UniProt P03695 1-301, looked up)
Single-stranded DNA-binding …: MFKRKSTAELAAQMAKLNGNKGFSSEDKGEWKLKLDNAGNGQAVIRFLPSKNDEQAPFAILVNHGFKKNGKWYIETCSSTHGDYDSCPVCQYISKNDLYNTDNKEYSLVKRKTSYWANILVVKDPAAPENEGKVFKYRFGKKIWDKINAMIAVDVEMGETPVDVTCPWEGANFVLKVKQVSGFSNYDESKFLNQSAIPNIDDESFQKELFEQMVDLSEMTSKDKFKSFEELNTKFGQVMGTAVMGGAAATAAKKADKVADDLDAFNVDDFNTKTEDDFMSSSSGSSSSADDTDLDDLLNDL

Experiments:
Format in all cases: biochemical
[1] = target: T1, Taq Δ271 F667Y (polymerase A) (Thermus aquaticus, UniProt P19821, F272M/F667Y); assay: DNA polymerase activity assay with detergent or additive, Taq Δ271 F667Y purified without detergent; settings: for Polymerase A Activity (%): detergent 0.05% (w/v)
T1 construct: made in house; host or cells: E. coli
T1 sequence (P19821 272-832 F272M/F667Y): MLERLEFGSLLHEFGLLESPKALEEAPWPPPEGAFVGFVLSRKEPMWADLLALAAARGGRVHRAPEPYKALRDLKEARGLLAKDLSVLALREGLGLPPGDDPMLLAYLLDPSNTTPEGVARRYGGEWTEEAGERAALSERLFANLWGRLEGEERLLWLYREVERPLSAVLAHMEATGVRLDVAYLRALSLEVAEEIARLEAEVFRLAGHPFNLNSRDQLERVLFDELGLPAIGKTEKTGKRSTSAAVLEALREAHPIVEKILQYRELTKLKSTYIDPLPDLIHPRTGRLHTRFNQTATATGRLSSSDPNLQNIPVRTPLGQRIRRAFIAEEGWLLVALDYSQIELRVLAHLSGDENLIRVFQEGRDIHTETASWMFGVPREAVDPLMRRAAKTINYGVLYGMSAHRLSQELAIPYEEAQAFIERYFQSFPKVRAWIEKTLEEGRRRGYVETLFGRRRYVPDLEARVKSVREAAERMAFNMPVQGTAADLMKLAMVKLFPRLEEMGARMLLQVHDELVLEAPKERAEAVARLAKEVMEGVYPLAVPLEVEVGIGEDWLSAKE
Method: (§1) DNA polymerase activity was measured by running reactions of 50 μL containing 25 mM TAPS (tris-hydroxymethyl-methylaminopropane sulfonic acid) buffer, pH 9.3 (measured at 25° C.), 50 mM KCl, 2 mM MgCl2, 1 mM 2-mercaptoethanol, 0.2 mM each of dGTP, dCTP, dTTP, 0.2 mM [α-^33P]-dATP (0.05-0.1 Ci/mmol) and 0.4 mg/mL activated salmon sperm DNA. The reaction mixture (45 μL) was pre-heated to 74° C. and diluted polymerase (5 μL) added with thorough mixing. After 10 minutes of further incubation at 74° C., the reaction was stopped by the addition of 10 μL of 60 mM EDTA and the entire mixture placed at 0° C. Acid-precipitable radioactivity was determined on an aliquot ([…]) by diluting with 1 ml of 2 mM EDTA containing 0.05 mg/ml salmon sperm DNA and adding 1 mL of 20% (w/v) trichloroacetic acid, 2% (w/v) sodium pyrophosphate (Na4P2O7 10H2O) and incubating on ice for at least 15 minutes. Precipitated DNA was collected by filtering through 2.4 cm GFC filter disks (Schleichter and Schuell) and washed 7 times with 5ml of with 1 N HCl, 0.1 M sodium pyrophosphate. The filter was placed in 3 ml of aqueous scintillation counting fluid and ^33P-specific radioactivity determined by scintillation counting.
(§2) For the assays presented in Tables 5 and 6, the polymerase was diluted 10-5000 fold in a buffer containing 25 mM Tris-HCl pH 8.0, 50 mM KCl, 1 mM 2-mercaptoethanol, and the indicated concentration of detergent or other additive. Where possible, only reactions which incorporated 20- 100 pmol of dAMP in 10 minutes were used for calculation of activity.

[2] = target: T2, Taq Δ271 F667Y E681W (polymerase B) (Thermus aquaticus, UniProt P19821, E681W/F272M/F667Y); assay: DNA polymerase activity assay with detergent or additive, Taq Δ271 F667Y E681W purified without detergent; settings: for Polymerase B Activity (%): detergent 0.05% (w/v)
T2 construct: made in house; host or cells: E. coli
T2 sequence (P19821 272-832 F272M/F667Y/E681W): as the sequence (P19821 272-832 F272M/F667Y) above, with E410W counted along it
Method: as §1, §2

[3] = target: T3, Tth Δ273 F668Y (polymerase C) (Thermus thermophilus, UniProt P52028, F274M/F669Y); assay: DNA polymerase activity assay with detergent or additive, Tth Δ273 F668Y purified without detergent; settings: for Polymerase C Activity (%): detergent 0.05% (w/v)
T3 construct: made in house; host or cells: E. coli
T3 sequence (P52028 274-834 F274M/F669Y): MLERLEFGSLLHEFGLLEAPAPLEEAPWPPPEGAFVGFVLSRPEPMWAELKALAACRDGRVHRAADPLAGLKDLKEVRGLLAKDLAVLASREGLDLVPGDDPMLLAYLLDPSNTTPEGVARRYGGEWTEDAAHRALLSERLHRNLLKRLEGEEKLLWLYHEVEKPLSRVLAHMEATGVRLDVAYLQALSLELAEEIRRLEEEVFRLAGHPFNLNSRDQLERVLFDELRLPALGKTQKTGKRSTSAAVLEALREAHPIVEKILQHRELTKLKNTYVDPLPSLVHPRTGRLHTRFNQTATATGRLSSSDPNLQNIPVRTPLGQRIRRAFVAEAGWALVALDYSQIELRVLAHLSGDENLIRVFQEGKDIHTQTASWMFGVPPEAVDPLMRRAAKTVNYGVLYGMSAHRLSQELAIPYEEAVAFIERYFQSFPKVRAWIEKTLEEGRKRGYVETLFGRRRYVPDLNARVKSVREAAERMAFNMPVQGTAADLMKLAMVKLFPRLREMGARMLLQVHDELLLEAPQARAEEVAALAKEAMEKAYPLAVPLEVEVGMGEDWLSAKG
Method: as §1, §2

[4] = additive final concentration 0.01% (w/v)
[5] = additive final concentration 0.05% (w/v)
[6] = additive final concentration 0.1% (w/v)
[7] = additive final concentration 0.001% (w/v) in assay reaction mixture
[8] = additive final concentration 20 μg/ml
[9] = additive final concentration 100 μg/ml
[10] = additive final concentration 60 μg/ml
[11] = additive final concentration 0.2% (w/v)

| Molecule | Taq Δ271 F667Y activity relative to 0.5% each NP-40 and Tween 20 [1, 4] | Taq Δ271 F667Y activity relative to 0.5% each NP-40 and Tween 20 [1, 5] | Taq Δ271 F667Y activity relative to 0.5% each NP-40 and Tween 20 [1, 6] | Taq Δ271 F667Y E681W activity relative to 0.5% each NP-40 and Tween 20 [2, 4] | Taq Δ271 F667Y E681W activity relative to 0.5% each NP-40 and Tween 20 [2, 5] | Taq Δ271 F667Y E681W activity relative to 0.5% each NP-40 and Tween 20 [2, 6] | Tth Δ273 F668Y activity relative to 0.5% each NP-40 and Tween 20 [3, 4] | Tth Δ273 F668Y activity relative to 0.5% each NP-40 and Tween 20 [3, 5] | Tth Δ273 F668Y activity relative to 0.5% each NP-40 and Tween 20 [3, 6] | further results |
| --- | --- | --- | --- | --- | --- | --- | --- | --- | --- | --- |
| C[C@H](CCC(=O)NCCC[N+](C)(C)CCCS(=O)(=O)[O-])[C@H]1CC[C@H]2[C@@H]3[C@H](O)C[C@@H]4C[C@H](O)CC[C@]4(C)[C@H]3C[C@H](O)[C@]12C [CHAPS, 3-[(3-Cholamidopropyl)dimethylammonio]-1-propanesulfonate] | − − (Activity 20-50%) | − (Activity 50-60%) | + (Activity 60-70%) | − − − (Activity < 20%) | − − (Activity 20-50%) | − (Activity 50-60%) | − (Activity 50-60%) | − − (Activity 20-50%) | − − (Activity 20-50%) | – |
| CC1=NC[C@H](O)[C@@H](C(=O)O)N1 [Hydroxyectoin] | − − − (Activity < 20%) | − − − (Activity < 20%) | – | − − − (Activity < 20%) | − − − (Activity < 20%) | – | − − − (Activity < 20%) | − − − (Activity < 20%) | – | – |
| CCCCCCCCCC(=O)N(C)C[C@H](O)[C@@H](O)[C@H](O)[C@H](O)CO [Mega-10, D-decanoyl-N-methyl glucamide] | − − (Activity 20-50%) | + + (Activity 70-80%) | – | − − − (Activity < 20%) | + + + (Activity > 80% (relative to activity using 0.5% each NP-40 and Tween 20)) | – | + + (Activity 70-80%) | − − (Activity 20-50%) | – | Taq Δ271 F667Y activity relative to 0.5% each NP-40 and Tween 20 [1, 7]: − − − (Activity < 20%); Polymerase A Activity (%) [1]: 94%; Polymerase B Activity (%) [2]: 73%; Tth Δ273 F668Y activity relative to 0.5% each NP-40 and Tween 20 [3, 7]: − − (Activity 20-50%); Polymerase C Activity (%) [3]: 100% |
| CCCCCCCCCCCCCC[N+](C)(C)CCCS(=O)(=O)[O-] [Zwittergent 3-14] | – | – | – | − − − (Activity < 20%) | – | – | – | – | – | – |
| E. coli Single-Stranded DNA Binding Protein: E. coli Single-Stranded DNA Binding Protein | – | – | – | – | – | – | – | – | – | Tth Δ273 F668Y activity relative to 0.5% each NP-40 and Tween 20 [3, 8]: − − − (Activity < 20%); Tth Δ273 F668Y activity relative to 0.5% each NP-40 and Tween 20 [3, 9]: − − − (Activity < 20%) |
| CC1=NCC[C@@H](C(=O)O)N1 [Ectoin] | − − − (Activity < 20%) | – | − − − (Activity < 20%) | − − − (Activity < 20%) | – | − − − (Activity < 20%) | − − − (Activity < 20%) | – | − − − (Activity < 20%) | Taq Δ271 F667Y activity relative to 0.5% each NP-40 and Tween 20 [1, 7]: − − − (Activity < 20%); Taq Δ271 F667Y E681W activity relative to 0.5% each NP-40 and Tween 20 [2, 7]: − − − (Activity < 20%); Tth Δ273 F668Y activity relative to 0.5% each NP-40 and Tween 20 [3, 7]: − − − (Activity < 20%) |
| CCCCCCCCO[C@@H]1O[C@H](CO)[C@H](O)[C@H](O)[C@H]1O [N-octyl β-D-galactopyranoside] | − − − (Activity < 20%) | − − (Activity 20-50%) | – | − − − (Activity < 20%) | – | − (Activity 50-60%) | − − (Activity 20-50%) | + + + (Activity > 80% (relative to activity using 0.5% each NP-40 and Tween 20)) | – | Taq Δ271 F667Y activity relative to 0.5% each NP-40 and Tween 20 [1, 7]: − − − (Activity < 20%); Taq Δ271 F667Y E681W activity relative to 0.5% each NP-40 and Tween 20 ([2]; additive final concentration 0.25% (w/v)): + (Activity 60-70%); Taq Δ271 F667Y E681W activity relative to 0.5% each NP-40 and Tween 20 ([2]; additive final concentration 0.5% (w/v)): − − − (Activity < 20%); Tth Δ273 F668Y activity relative to 0.5% each NP-40 and Tween 20 [3, 7]: − − (Activity 20-50%) |
| gelatin | – | – | – | – | – | – | – | – | – | Tth Δ273 F668Y activity relative to 0.5% each NP-40 and Tween 20 ([3]; additive final concentration 50 μg/ml): − − − (Activity < 20%) |
| Bovine Serum Albumin (BSA): Bovine Serum Albumin | – | – | – | – | – | – | – | – | – | Taq Δ271 F667Y activity relative to 0.5% each NP-40 and Tween 20 [1, 10]: − (Activity 50-60%); Tth Δ273 F668Y activity relative to 0.5% each NP-40 and Tween 20 [3, 10]: − − (Activity 20-50%) |
| Sodium Deoxycholate | − − − (Activity < 20%) | − − − (Activity < 20%) | − − − (Activity < 20%) | − − − (Activity < 20%) | − − − (Activity < 20%) | − − − (Activity < 20%) | − − − (Activity < 20%) | − − − (Activity < 20%) | − − − (Activity < 20%) | – |
| CCCCCCCC[N+](C)(C)CCCS(=O)(=O)[O-] [Zwittergent 3-08] | – | − − − (Activity < 20%) | − − (Activity 20-50%) | – | − − − (Activity < 20%) | − − (Activity 20-50%) | – | − − (Activity 20-50%) | − (Activity 50-60%) | Taq Δ271 F667Y activity relative to 0.5% each NP-40 and Tween 20 [1, 11]: − − (Activity 20-50%); Taq Δ271 F667Y E681W activity relative to 0.5% each NP-40 and Tween 20 [2, 11]: − − (Activity 20-50%); Tth Δ273 F668Y activity relative to 0.5% each NP-40 and Tween 20 [3, 11]: + (Activity 60-70%) |
| C[C@H](CCC(=O)NCCC[N+](C)(C)CC(O)CS(=O)(=O)[O-])[C@H]1CC[C@H]2[C@@H]3[C@H](O)C[C@@H]4C[C@H](O)CC[C@]4(C)[C@H]3C[C@H](O)[C@]12C (some centres unmarked) [CHAPSO, 3-[(3-Cholamidopropyl)dimethylammonio]-2-hydroxy-1-propanesulfonate] | − − − (Activity < 20%) | − − (Activity 20-50%) | + (Activity 60-70%) | − − − (Activity < 20%) | − − (Activity 20-50%) | − − (Activity 20-50%) | − (Activity 50-60%) | − − (Activity 20-50%) | − − (Activity 20-50%) | – |
| CCCCCCCCC(=O)N(C)C[C@H](O)[C@@H](O)[C@H](O)[C@H](O)CO [Mega-9, Nonyl-N-methylglucamide] | − − − (Activity < 20%) | − − (Activity 20-50%) | – | − − − (Activity < 20%) | + + (Activity 70-80%) | – | − − (Activity 20-50%) | + + + (Activity > 80% (relative to activity using 0.5% each NP-40 and Tween 20)) | – | Polymerase A Activity (%) [1]: 71.2%; Polymerase B Activity (%) [2]: 82%; Polymerase C Activity (%) [3]: 74% |
| B1 | – | – | – | – | – | – | – | – | – | Tth Δ273 F668Y activity relative to 0.5% each NP-40 and Tween 20 [3, 8]: − − − (Activity < 20%); Tth Δ273 F668Y activity relative to 0.5% each NP-40 and Tween 20 [3, 9]: − − − (Activity < 20%) |

From patent US20030134292A1, “Thermostable DNA polymerases and methods of making same” (priority 2001, published 2003)
